In publication PMC12202571, “Reversal of ABCG2-mediated drug resistance by tinodasertib (ETC-206)” (Frontiers in Pharmacology, 2025):

How the values were obtained:
ABCG2 [1] = target: T1, ABCG2 (Homo sapiens, UniProt Q9UNQ0)
T1 sequence (Q9UNQ0 1-655): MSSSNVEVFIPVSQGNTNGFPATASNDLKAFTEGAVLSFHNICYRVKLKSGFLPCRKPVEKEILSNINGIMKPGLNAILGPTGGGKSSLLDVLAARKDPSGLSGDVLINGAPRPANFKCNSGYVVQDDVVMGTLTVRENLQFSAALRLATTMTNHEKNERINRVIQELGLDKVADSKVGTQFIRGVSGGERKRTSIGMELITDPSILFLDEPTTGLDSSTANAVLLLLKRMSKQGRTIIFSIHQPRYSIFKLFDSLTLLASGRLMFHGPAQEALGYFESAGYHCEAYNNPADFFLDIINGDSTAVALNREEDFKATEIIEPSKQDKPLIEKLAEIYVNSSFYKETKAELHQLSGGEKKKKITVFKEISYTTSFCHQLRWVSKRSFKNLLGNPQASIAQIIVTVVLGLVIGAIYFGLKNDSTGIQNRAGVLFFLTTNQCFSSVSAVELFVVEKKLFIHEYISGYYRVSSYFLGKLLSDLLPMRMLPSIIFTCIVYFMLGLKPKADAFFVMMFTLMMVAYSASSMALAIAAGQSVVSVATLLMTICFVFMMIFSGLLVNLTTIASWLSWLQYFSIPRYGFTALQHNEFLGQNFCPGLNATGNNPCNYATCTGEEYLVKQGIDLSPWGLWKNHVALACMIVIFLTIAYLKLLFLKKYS

ABCG2 [2] = target: T2, ABCG2 (Homo sapiens, UniProt Q9UNQ0); assay: vanadate-sensitive ATPase assay in ABCG2 membrane vesicles (colorimetric phosphate); supported by [3H]-mitoxantrone efflux inhibition in cells; format: biochemical
T2 construct: ABCG2-containing membrane vesicles

| Compound | [3H]-mitoxantrone accumulation and efflux in ABCG2-overexpressing versus parenta (ABCG2 [1]) | IC50 (ABCG2 [2]) [nM] |
| --- | --- | --- |
| O=C1c2c(O)ccc(O)c2C(=O)c2c(NCCNCCO)ccc(NCCNCCO)c21 [mitoxantrone] | Efflux assays demonstrated a substantial reduction in [^3H]-mitoxantrone efflux from ABCG2-overexpressing cells | – |
| N#Cc1ccc(-c2cnc3ccc(-c4ccc(C(=O)N5CCOCC5)cc4)cn23)cc1 [tinodasertib] | – | ~2000 |
